Counter-ions that a name gives are not always drawn. Like-named read-outs stand apart in the source and are kept apart here.
Columns and labels:
human AT1 receptor = molecular target: T1, human AT1 receptor (Homo sapiens, UniProt P30556); assay: Binding assay using human AT1 receptor-expressing CHO-K1 cell membrane fraction ([125I]-angiotensin II); conditions: 22.5 pM [125I]-angiotensin II, 9 μg AT1 membrane, 1 hr room temperature; read-out: AT1 receptor binding inhibitory action (IC50 (nM))
T1 construct: expressed in transfected cells; host or cells: CHO-K1
T1 sequence (P30556 1-359): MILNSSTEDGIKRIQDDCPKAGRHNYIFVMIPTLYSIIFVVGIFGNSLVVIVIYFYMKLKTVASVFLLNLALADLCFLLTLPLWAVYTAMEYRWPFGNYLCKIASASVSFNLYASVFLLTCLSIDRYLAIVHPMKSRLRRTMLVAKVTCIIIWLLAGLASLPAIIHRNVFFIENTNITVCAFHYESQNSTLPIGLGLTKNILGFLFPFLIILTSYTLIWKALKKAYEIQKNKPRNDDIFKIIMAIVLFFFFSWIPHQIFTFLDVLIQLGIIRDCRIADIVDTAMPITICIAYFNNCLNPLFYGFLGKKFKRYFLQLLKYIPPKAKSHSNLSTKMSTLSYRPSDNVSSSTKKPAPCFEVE
Description: The membrane fraction for human AT1 receptor binding assay was prepared as follows. CHO-K1 cell capable of stable expression of human AT1 receptor was cultured, recovered, suspended in homogenize buffer (10 mM NaHCO3 (pH 7.4), 5 mM EDTA, 1×Complete EDTA free) [manufactured by Roche, Switzerland], and homogenized. The homogenate was centrifuged at low-speed (900×g, 10 min, 4° C.), and the supernatant was recovered and ultracentrifuged (90,000×g, 1 hr, 4° C.). The supernatant was discarded, and the pellets were resuspended in resuspension buffer (50 mM Tris (pH 7.4), 1 mM EDTA, 1×Complete EDTA free).
The binding assay was performed in the presence of 22.5 pM [^125I]-angiotensin II [manufactured by PerkinElmer, USA], 9 μg of AT1 membrane and test compound in 100 μL (total reaction volume) of reaction buffer (50 mM Tris (pH 7.4), 10 mM MgCl2 supplemented or not supplemented with 0.3 mg/mL fatty acid-free bovine serum albumin [manufactured by Wako Pure Chemical Industries, Ltd., Japan]). The reaction mixture was incubated in 96 well polypropylene plate for 1 hr at room temperature, and the reaction was quenched by rapid filtration (96 well cell harvester) through a GF/C filter treated with wash buffer (50 mM Tris (pH 7.4)). Subsequently, the filter was washed 5 times with 0.3 mL of ice-cooled wash buffer. The filter was air-dried, and [^125I]-angiotensin II binding radioactivity was assayed with Top Count scintillation counter. Total binding was measured in the presence of 1% DMSO and nonspecific binding was measured in the presence of 1 μM CV-11974. The binding data was analyzed by GraphPad Prism program and the IC50 value (compound concentration showing 50% of the maximum value of inhibition percent) of the test compound was calculated.

PPARγ = molecular target: T2, PPARγ (Homo sapiens, UniProt P37231); assay: Evaluation of PPARγ activating action (luciferase reporter in PPARγ:RXRα:4ERPP/CHO-K1 cells); format: cell-based; conditions: CHO-K1, 24 h, read-out: PPARγ activating action (activation % (10^−6 M))
T2 construct: expressed in transfected cells; host or cells: CHO-K1
T2 sequence (P37231 1-477 isoform P37231-2): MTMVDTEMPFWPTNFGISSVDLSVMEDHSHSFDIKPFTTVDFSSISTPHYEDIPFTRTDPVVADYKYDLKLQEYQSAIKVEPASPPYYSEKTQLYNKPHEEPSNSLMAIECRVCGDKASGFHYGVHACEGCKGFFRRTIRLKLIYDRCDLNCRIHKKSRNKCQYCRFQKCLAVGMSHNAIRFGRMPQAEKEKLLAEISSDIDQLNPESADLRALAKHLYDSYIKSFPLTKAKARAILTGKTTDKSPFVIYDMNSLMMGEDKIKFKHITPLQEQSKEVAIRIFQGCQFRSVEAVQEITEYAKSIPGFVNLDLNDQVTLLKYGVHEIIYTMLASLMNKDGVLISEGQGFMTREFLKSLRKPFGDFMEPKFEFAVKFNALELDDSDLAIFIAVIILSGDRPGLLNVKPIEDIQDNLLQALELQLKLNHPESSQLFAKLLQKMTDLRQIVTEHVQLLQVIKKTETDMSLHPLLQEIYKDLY
T2 sequence (P19793 1-462 partner): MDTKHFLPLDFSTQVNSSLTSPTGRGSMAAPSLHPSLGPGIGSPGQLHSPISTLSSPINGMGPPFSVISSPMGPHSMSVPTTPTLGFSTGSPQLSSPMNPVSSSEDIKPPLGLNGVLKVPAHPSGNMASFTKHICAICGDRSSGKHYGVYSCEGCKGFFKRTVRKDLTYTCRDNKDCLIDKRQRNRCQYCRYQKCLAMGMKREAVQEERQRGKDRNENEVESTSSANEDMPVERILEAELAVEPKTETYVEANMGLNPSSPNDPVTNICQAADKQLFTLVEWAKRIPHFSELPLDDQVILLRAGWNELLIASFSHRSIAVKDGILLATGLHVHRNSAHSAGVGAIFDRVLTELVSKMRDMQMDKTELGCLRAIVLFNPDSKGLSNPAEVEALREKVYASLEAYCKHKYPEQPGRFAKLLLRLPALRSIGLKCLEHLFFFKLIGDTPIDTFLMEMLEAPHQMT
Description: PPARγ:RXRα:4ERPP/CHO-K1 cells obtained in the following Reference Example 5 were cultured in F12 medium [manufactured by INVITROGEN, USA] containing 10% fetal bovine serum [manufactured by MOREGATE, Australia], seeded in a 96-well half area white plate [manufactured by Corning Coster Corporation, USA] at the density of 5×10^3 cells/well and cultured in a CO2 gas incubator at 37° C. overnight.
Then the medium was removed from the 96-well half area white plate, 45 μl of Ham's F12 medium containing 0.1% fatty acid-free bovine serum albumin (BSA) and 5 μl of test compound were added, and the cells were cultured in a CO2 gas incubator at 37° C. for 1 day. The medium was removed and 20 μl of PicaGene 7.5 [manufactured by TOYO INK MFG. CO., LTD.,.Japan] diluted 2-fold with HBSS (HANKS' BALANCED SALT SOLUTION) [manufactured by BIO WHITTAKER, USA] was added. After stirring, the luciferase activity was determined using 1420 ARVO Multilabel Counter [manufactured by PerkinElmer, USA].
The percent (%) was calculated from the luciferase activity of each test compound when the luciferase activity of the control compound (compound X: 5-[3-(4-{[2-(2-furyl)-5-methyl-1,3-oxazol-4-yl]methoxy}-3-methoxyphenyl)propyl]-1,3-oxazolidine-2,4-dione) (1 μM) was 100% and that of the test compound non-administration group was 0%.
A CHO-K1 cell cultured in a 150 cm^2 cell culture flask [manufactured by Corning Costar Corporation, USA] containing Ham's F12 medium [manufactured by INVITROGEN, USA] supplemented with 10% fetal bovine serum [manufactured by INVITROGEN, USA] was scraped by treating with 0.5 g/L trypsin-0.2 g/L EDTA (ethylenediaminetetraacetic acid) [manufactured by Life Technologies, Inc., USA], and then the cell was washed with PBS (Phosphate-buffered saline) [manufactured by INVITROGEN, USA], centrifuged (1000 rpm, 5 minutes) and suspended in PBS. Subsequently, DNA was introduced into the cell under the conditions shown below using GENE PULSER [manufactured by Bio-Rad Laboratories, USA].
Namely, to a cuvette having a 0.4 cm gap were added 8×10^6 cells and 10 μg of plasmid pVgRXR2-hPPARγ obtained in Reference Example 4 and 10 μg of reporter plasmid pGL3-4ERPP-TK neo obtained in Reference Example 3, which was subjected to electroporation at the voltage of 0.25 kV under the capacitance of 960 μF. Subsequently, the cell was transferred into a F12 medium containing 10% fetal bovine serum and cultured for 24 hours, and then the cell was scraped again and centrifuged, and then suspended in Ham's F12 medium containing 10% fetal bovine serum supplemented with 500 μg/ml of Geneticin [manufactured by INVITROGEN, USA] and 250 μg/ml of Zeocin [manufactured by INVITROGEN, USA]. The obtained suspension was diluted to the density of 10^4 cells/ml and inoculated in a 96-well plate [manufactured by Corning Costar Corporation, USA], which was cultured in a CO2 gas incubator at 37° C., whereby obtaining a Geneticin- and Zeocin-resistant transformant.
Subsequently, after the transformant cell line thus obtained was cultured in a 24-well plate [manufactured by Corning Costar Corporation, USA], a cell line in which the luciferase was expressed and induced, i.e., PPARγ:RXRα:4ERPP/CHO-K1 cell was selected by the addition of 10 μM pioglitazone hydrochloride.

[1] = test compound 10^−6 M, luciferase activity relative to control compound X (1 μM) = 100%, non-administration group = 0%

Structure (SMILES) | IC50 (human AT1 receptor) [nM] | activation at 1 µM (PPARγ; [1]) [%] | activation at 1 µM (PPARγ) [%]
CCCc1nc(CC)c(Oc2cccc(OC)c2)c(=O)n1Cc1ccc(-c2ccccc2-c2noc(O)n2)cc1 [Example 488, 6-ethyl-5-(3-methoxyphenoxy)-3-{[2′-(5-oxo-4,5-dihydro-1,2,4-oxadiazol-3-yl)biphenyl-4-yl]methyl}-2-propylpyrimidin-4(3H)-one potassium salt] | 1.9 |  | 16.7
CCCCc1nc(OC)n(Cc2ccccc2)c(=O)c1Cc1ccc(-c2ccccc2-c2noc(=O)[nH]2)cc1 [Example 107, 3-benzyl-6-butyl-2-methoxy-5-{[2′-(5-oxo-4,5-dihydro-1,2,4-oxadiazol-3-yl)biphenyl-4-yl]methyl}pyrimidin-4(3H)-one] | 2 | 60 | 
CCCc1nc(CC)c(-c2ccc(OCC)nc2)c(=O)n1Cc1ccc(-c2ccccc2-c2noc(O)n2)cc1 [Example 507, 5-(6-ethoxypyridin-3-yl)-6-ethyl-3-{[2′-(5-oxo-4,5-dihydro-1,2,4-oxadiazol-3-yl)biphenyl-4-yl]methyl}-2-propylpyrimidin-4(3H)-one] | 2.2 | 32.4 | 
CCCc1nc(CC)n(-c2ccc3c(c2)CCO3)c(=O)c1Cc1ccc(-c2ccccc2-c2noc(O)n2)cc1 [Example 311, 3-(2,3-dihydro-1-benzofuran-5-yl)-2-ethyl-5-{[2′-(5-oxo-4,5-dihydro-1,2,4-oxadiazol-3-yl)biphenyl-4-yl]methyl}-6-propylpyrimidin-4(3H)-one potassium salt] | 1.6 |  | 38.1
CCCc1nc(C(F)F)n(-c2ccc(OC)cc2)c(=O)c1Cc1ccc(-c2ccccc2-c2noc(=O)[nH]2)cc1 [Example 410] | 2.1 |  | 

Further lines, with some results ahead:

IC50 (human AT1 receptor) [nM] | activation at 1 µM (PPARγ; [1]) [%] | Structure (SMILES) | activation at 1 µM (PPARγ) [%]
1.5 | 46.9 | CCCc1nc(CC)n(-c2ccc(OC3CCOCC3)cc2)c(=O)c1Cc1ccc(-c2ccccc2-c2noc(=O)[nH]2)cc1 [Example 378, 2-ethyl-5-{[2′-(5-oxo-4,5-dihydro-1,2,4-oxadiazol-3-yl)biphenyl-4-yl]methyl}-6-propyl-3-[4-(tetrahydro-2H-pyran-4-yloxy)phenyl]pyrimidin-4(3H)-one] | 
1.5 | 50.2 | CCCCc1nc(CF)n(Cc2ccccc2)c(=O)c1Cc1ccc(-c2ccccc2-c2noc(=O)[nH]2)cc1 [Example 103, 3-benzyl-6-butyl-2-(fluoromethyl)-5-{[2′-(5-oxo-4,5-dihydro-1,2,4-oxadiazol-3-yl)biphenyl-4-yl]methyl}pyrimidin-4(3H)-one] | 
2 | 23.5 | CCCc1nc(CC)c(Oc2ccc3c(c2)OCO3)c(=O)n1Cc1ccc(-c2ccccc2-c2noc(O)n2)cc1 [Example 485, 5-(1,3-benzodioxol-5-yloxy)-6-ethyl-3-{[2′-(5-oxo-4,5-dihydro-1,2,4-oxadiazol-3-yl)biphenyl-4-yl]methyl}-2-propylpyrimidin-4(3H)-one] | 
0.7 | 15.2 | CCCc1nc(C)n(-c2ccc(OC3CCC(O)CC3)cc2)c(=O)c1Cc1ccc(-c2ccccc2-c2noc(O)n2)cc1F (stereo not drawn) [Example 343, 5-{[3-fluoro-2′-(5-oxo-4,5-dihydro-1,2,4-oxadiazol-3-yl)biphenyl-4-yl]methyl}-3-{4-[(4-hydroxycyclohexyl)oxy]phenyl}-2-methyl-6-propylpyrimidin-4(3H)-one] | 
1.7 | 32.8 | CCCc1nc(C)n(-c2ccc3c(c2)C=CC(C)(C)O3)c(=O)c1Cc1ccc(-c2ccccc2-c2noc(=O)[nH]2)cc1 [Example 142, 3-(2,2-dimethyl-2H-chromen-6-yl)-2-methyl-5-{[2′-(5-oxo-4,5-dihydro-1,2,4-oxadiazol-3-yl)biphenyl-4-yl]methyl}-6-propylpyrimidin-4(3H)-one] | 
1.7 | 30.5 | CCCc1nc(C)n(-c2ccc(OC3CCC3)cc2)c(=O)c1Cc1ccc(-c2ccccc2-c2noc(=O)[nH]2)cc1 [Example 255, 3-[4-(cyclobutyloxy)phenyl]-2-methyl-5-{[2′-(5-oxo-4,5-dihydro-1,2,4-oxadiazol-3-yl)biphenyl-4-yl]methyl}-6-propylpyrimidin-4(3H)-one] | 
